Test results from PubChem BioAssay AID755 (The Scripps Research Institute Molecular Screening Center, 2007).
Calls of active or inactive are those of the source.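 Rule for the calls: active = IC50 at or below 10 micromolar; inactive = IC50 above 10 micromolar.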

molecular target: 5-hydroxytryptamine receptor 1A (Homo sapiens) (UniProt P08908); test: human 5-HT1A antagonist potency, dose response, cell-based, CHO, Ga15 NFAT-bla reporter (AID 755); details: CHO 5-HT1A Ga15 NFAT-BLA reporter, FRET antagonist
Sequence (P08908 whole entry, looked up): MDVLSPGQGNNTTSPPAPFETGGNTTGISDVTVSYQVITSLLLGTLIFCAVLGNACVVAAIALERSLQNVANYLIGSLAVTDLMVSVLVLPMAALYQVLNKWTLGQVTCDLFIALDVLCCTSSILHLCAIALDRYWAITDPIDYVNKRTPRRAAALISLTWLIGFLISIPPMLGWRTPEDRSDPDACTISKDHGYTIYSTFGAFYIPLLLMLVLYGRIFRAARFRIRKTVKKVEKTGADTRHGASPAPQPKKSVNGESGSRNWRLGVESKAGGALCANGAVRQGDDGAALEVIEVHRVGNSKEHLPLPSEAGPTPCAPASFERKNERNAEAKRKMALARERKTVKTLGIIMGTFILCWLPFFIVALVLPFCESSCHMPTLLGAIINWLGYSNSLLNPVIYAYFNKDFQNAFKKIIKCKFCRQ

Compound | IC50
CSc1ccccc1N=CC1=C(O)CC(C)(C)CC1=O | 1.88 µM
COc1ccc(N2C(=O)CC(NCc3ccncc3)C2=O)cc1 (stereo not given) | > 40 µM (inactive)
COc1cc2c(cc1OC)C1=C(C#N)CC/C(=N\S(=O)(=O)c3ccccc3)N1CC2 | > 40 µM (inactive)

More lines, now with the values ahead:

IC50 | Compound
7.33 µM | CC(=O)Oc1ccc(N2C(=O)C3C(C2=O)C2(C)C=CC3(C)O2)cc1 (stereo not given)
inactive | O=C1C2C3C=CC(CO)(O3)C2C(=O)N1c1ccc(-c2ccccc2)cc1 (stereo not given)
